Laboratory results: US5763483A, “Carbocyclic compounds” (priority 1996, dated 1998)

Molecular target: neuraminidase
Experiment: Enzyme Inhibition (in vitro neuraminidase screen)
Type: biochemical
From the text: Compositions of the invention are screened for inhibitory activity against neuraminidase by any of the conventional techniques for evaluating enzyme activity. Within the context of the invention, typically compositions are first screened for inhibition of neuraminidase in vitro and compositions showing inhibitory activity are then screened for activity in vivo. Compositions having in vitro Ki (inhibitory constants) of less then about 5×10^-6 M, typically less than about 1×10^-7 M and preferably less than about 5×10^-8 M are preferred for in vivo use.
Useful in vitro screens have been described in detail and will not be elaborated here. However, Itzstein, M. von et al.; "Nature", 363(6428):418-423 (1993), in particular page 420, column 2, full paragraph 3, to page 421, column 2, first partial paragraph, describes a suitable in vitro assay of Potier, M.; et al.; "Analyt. Biochem.", 94:287-296 (1979), as modified by Chong, A. K. J.; et al.; "Biochem. Biophys. Acta", 1077:65-71 (1991); and Colman, P. M.; et al.; International Publication No. WO 92/06691 (Int. App. No. PCT/AU90/00501, publication date Apr. 30, 1992) page 34, line 13, to page 35, line 16, describes another useful in vitro screen.
Enzyme Inhibition: Using the methods of screening in vitro activity described above, the following activities were observed (+10-100 μm, ++1-10 μm, +++<1.0 μm): […]

Structure (SMILES)	IC50 [nM]
CC(=O)N[C@@H]1[C@@H](N)CC(C(=O)O)=C[C@H]1OCC(O)CO (stereo partly drawn) [Compound 8]	1000 to 10000
CC(=O)N[C@H]1[C@H](O)C=C(C(=O)O)C[C@@H]1NC(=N)N [Compound 94]	< 1000
COCO[C@@H]1C=C(C(=O)O)C[C@H](N)[C@H]1NC(C)=O [Compound 114]	1000 to 10000
